Assay results: ChEMBL document CHEMBL1681686, “Discovery of N-methyl-1-(1-phenylcyclohexyl)methanamine, a novel triple serotonin, norepinephrine, and dopamine reuptake inhibitor” (Bioorg Med Chem Lett, 2011)

Tests used:
Type in all cases: ADME, organism-based
Details in all cases: in vivo; call rule not given here
Brain [1] = test: Drug uptake in mouse brain at 30 mg/kg, po; parameters: dose 30 mg/kg, route oral
Plasma [2] = test: Drug uptake in mouse plasma at 3 mg/kg, po; parameters: dose 3 mg/kg, route oral
Plasma [3] = test: Drug uptake in mouse plasma at 30 mg/kg, po; parameters: dose 30 mg/kg, route oral
Brain [4] = test: Drug uptake in mouse brain at 10 mg/kg, po; parameters: dose 10 mg/kg, route oral
Plasma [5] = test: Drug uptake in mouse plasma at 10 mg/kg, po; parameters: dose 10 mg/kg, route oral
Brain [6] = test: Drug uptake in mouse brain at 3 mg/kg, po; parameters: dose 3 mg/kg, route oral

Row | Structure (SMILES) | Drug uptake (Brain [1]) | Drug uptake (Plasma [2]) | Drug uptake (Plasma [3]) | Drug uptake (Brain [4]) | Drug uptake (Plasma [5]) | Drug uptake (Brain [6])
1 | CNCC1(c2ccc(Cl)c(Cl)c2)CCCCC1 | Active | – | – | – | – | –
2 | CNCC1(c2ccc(Cl)c(Cl)c2)CCCCC1.Cl | 7464 ng/g | 11 ng/mL | 227 ng/mL | 2166 ng/g | 50 ng/mL | 546 ng/g
3 | CNCC1(c2ccc3ccccc3c2)CCCCC1.Cl | 2175 ng/g | 8 ng/mL | 120 ng/mL | 306 ng/g | 21 ng/mL | 123 ng/g
